From article PMC6978316, “Development of chimeric peptides to facilitate the neutralisation of lipopolysaccharides during bactericidal targeting of multidrug-resistant Escherichia coli” (Communications Biology, 2020)
Where two headings read alike, the source gives them in different places. Where a SMILES comes first, the peptide text is derived from it. Bridges are numbered along the chain shown (N, C = ends).

Experiments:
[1] = tested on: 1:1 mixture of E. coli CVCC195 and S. aureus ATCC43300; assay type: cell-based, Escherichia coli; Staphylococcus aureus; conditions: Mean
Procedure: The selectivity of A6, G6, and N6 against Gram-negative and Gram-positive bacteria was determined using the mixed-culture bactericidal kinetics assay, as described in the Supplementary Information.
27 Supplementary Figure 6. Killing selectivity of peptides. A 1:1 mixture of E. coli (Ec) and S. aureus
28 (Sa) was treated with A6 (16 μg per ml), G6 (16 μg per ml) or N6 (2 μg per ml) for 1, 3 and 5 min,
29 respectively; survivors were counted in MH plates. The change in relative ratio of E. coli to S. aureus
30 (Ec/Sa) after treatment with A6, G6 or N6 is shown.
31 independent experiments).
(1 picture or pasted object on this page, not shown here)
102 Supplementary Methods
103 Mixed-culture bactericidal kinetics of SCPs-A6 and G6. The mid-exponential phage E. coli
104 CVCC195 and S. aureus ATCC43300 cultures were diluted to 2 × 10^5 CFU per ml, mixed (1:1) and
105 added into the 96-well plates. A6, G6 or N6 were added into each well of plates to final concentration
106 of 16 (A6 and G6) or 2 (N6) μg per ml in a 200-μl total volume. An aliquot was removed at 1, 3 and 5
107 min, respectively, and survivors were counted on MH solid plates1–3. […]

MDR E. coli CVCC195 = test: pH stability, residual antibacterial activity (inhibition zone); assay type: physicochemical, Escherichia coli; conditions: inhibition zone vs E. coli CVCC195, mean of n = 3
Procedure: The N6, A6, and G6 solutions were treated at different temperatures (20–100 °C) for 1 h, dissolved and incubated at different pH values (2–10) for 3 h, or incubated with trypsin or pepsin for 4 h. The inhibition zone diameters were measured after incubation at 37 °C for 18–24 h.

binding of LPS to LBP = test: Binding of LPS to LBP on LPS-immobilized plate (ELISA); assay type: biochemical; conditions: mean of n = 3
Procedure: The 96-well microtiter plates were coated with 4 ng per ml LPS (0.1 M Na2CO3 and 20 mM EDTA, pH 9.6, 50 μl per well) overnight at 4 °C, washed three times with PBST, and blocked with PBS (containing 1% BSA) for 2 h. After washing with PBST again, the plates were incubated at 37 °C for 1 h with different concentrations of peptides (A6, G6, or N6), which were dissolved in Dulbecco's Modified Eagle's (DMEM) medium (containing 10% FBS). After washing, cells were incubated with anti-LBP mAb 6G3 (ThermoFisher) for 1 h at 37 °C and HRP-conjugated rabbit anti-mouse IgG for 1 h at room temperature, respectively. Tetramethylbenzidine (TMB) solution was then added and incubated for 25–30 min. Finally, the reaction was stopped by addition of 0.5 M H2SO4, and the absorbance was measured at 450 nm[50].

[2] = tested on: Intestinal alkaline phosphatase (IAP); test: IAP level in duodenum of LPS-challenged mice; assay type: in vivo; conditions: duodenum homogenate, peptides 0.25 μmol per kg, PMB 10 μmol per kg, LPS alone 10.2985, CK 14.2257, n = 3
Procedure: The mice were intraperitoneally injected with LPS at an absolute LD100 and then were treated with 0.25 μmol per kg peptides (A6, G6 and N6) or 10 μmol per kg PMB at 0.5 h after challenge. The mice were sacrificed at 2 h and the sera were collected to detect inflammatory cytokines (including TNF-α, IL-6 and IL-10) using ELISA kits. To visualize IAP activity, the duodenum was rapidly excised from the mice and was homogenized; the IAP levels in the superpants were detected as described in the Supplementary Information. […]
114 Effects of SCPs on inflammatory cytokines and IAP. The serum sample (50 μl) was added into
115 each well of the plate; 50 μl of TNF-α, IL-I, IL-10 or IAP standard, control and test samples were then
116 added to each well of the plate, followed by placing the latex film on the shaker and incubation for 2
117 h at room temperature. After discarding the liquid in the well, the enzyme labeling plate was placed in
118 a 400 μl washing solution in the washing machine for 4 times; the enzyme labeling plate is inverted
119 and tapped on a clean paper towel so that there was no residual liquid in each hole . Mouse TNF-α，
120 IL-I，IL10 or IAP Conjugate (HRP Conjugate Detection Ab) working solution (100 μl) was added to
121 each well of the plate (diluted 1:100 before the test); the latex film was placed on the shaker and
122 incubated for 2 h at room temperature. After discarding the liquid in the well, the enzyme labeling
123 plate was placed in a 400 μl washing solution in the washing machine for 4 times, then the enzyme
124 labeling plate is inverted, and tapped on a clean paper towel so that there is no residual liquid in each
125 hole. Substrate Solution (100 μl) was added to each well of the plate and incubated at room
126 temperature for 30 min in the dark. Finally, 100 μl of Stop Solution (2N sulfuric acid solution) was
127 added to each well of the plate and gently mixed the plate to stop the reaction. The optical density
128 value was read by placing the microplate in a microplate reader for 30 min with the reading
129 wavelength of 450 nm and the calibration wavelength of 570 nm.
131 1. Kaplan, C. W., et al. Selective membrane disruption: mode of action of C16G2, a specifically
133 2. Eckert, R., et al. Adding selectivity to antimicrobial peptides: rational design of a multidomain
134 peptide against Pseudomonas spp. Antimicrob Agents Chemother. 50(4), 1480–1488 (2006).
135 3. Eckert, R., et al. Targeted killing of Streptococcus mutans by a pheromone-guided "smart"

LPS-induced lung injury = test: Protection of lung tissues from LPS (histology); assay type: in vivo; conditions: LPS-challenged mice, 0.25 μmol per kg
Procedure: The mice were treated with N6 (0.25 μmol per kg), A6 (0.25 μmol per kg), G6 (0.25 μmol per kg), and PMB (10 μmol per kg), respectively after the intraperitoneal injection of LPS at a concentration of LD100. The lung tissues were taken at 1 d and 6 d, respectively, washed with PBS and placed in 4% paraformaldehyde for 24 h at 4 °C. After washing with PBS, the tissues were dehydrated by a series of different concentrations of ethanol (75%, 85%, 90%, and 95%) and were immersed in xylene for paraffin embedding. After sectioning, the samples were stained with hematoxylin and were observed by a light microscope. The mice challenged with LPS and PBS served as the negative and blank control, respectively.

CC(C)[C@@H]1NC(=O)CNC(=O)[C@H](CC(N)=O)NC(=O)[C@H](CCCNC(=N)N)NC(=O)[C@H](Cc2ccc(O)cc2)NC(=O)[C@H](C(C)C)NC(=O)[C@@H](NC(=O)[C@@H](NC(=O)[C@H](CC(N)=O)NC(=O)[C@H](Cc2c[nH]c3ccccc23)NC(=O)[C@H](C)NC(=O)[C@H](Cc2ccccc2)NC(=O)CNC(=O)[C@H](CO)NC(=O)CNC(=O)CNC(=O)CNC(=O)CNC(=O)[C@H](CCCCN)NC(=O)[C@H](Cc2ccccc2)NC(=O)[C@H](Cc2ccccc2)NC(=O)[C@H](CO)NC(=O)[C@H](C)NC(=O)[C@H](CCCNC(=N)N)NC(=O)[C@@H](NC(=O)[C@H](CCCCN)NC(=O)[C@H](Cc2c[nH]c3ccccc23)NC(=O)[C@H](CCCNC(=N)N)NC(=O)CNC(=O)[C@H](CCC(N)=O)NC(=O)[C@@H](NC(=O)[C@@H](N)CCCNC(=N)N)C(C)C)C(C)C)C(C)C)CSSC[C@@H](C(=O)N[C@@H](Cc2c[nH]cn2)C(=O)N[C@@H](CCCNC(=N)N)C(=O)N[C@@H](CCCNC(=N)N)C(=O)N[C@@H](C)C(=O)N[C@@H](CC(N)=O)C(=O)O)NC(=O)[C@H](C(C)C)NC(=O)[C@H](CCCNC(=N)N)NC1=O [G6] (H-RVQGRWKVRASFFKGGGGSGFAWNVCVYRNGVRVCHRRAN-OH; disulfide 26-35)
killing selectivity of peptides ([1]; time 0 min): 0.9569
killing selectivity of peptides ([1]; time 1 min): 0.5118
killing selectivity of peptides ([1]; time 3 min): 0.1311
antibacterial activity after pH treatment (inhibition zone diameter), Mean (MDR E. coli CVCC195; pH=2 for 3 h): 1.407
antibacterial activity after pH treatment (inhibition zone diameter), Mean (MDR E. coli CVCC195; pH=4 for 3 h): 1.44
antibacterial activity after pH treatment (inhibition zone diameter), Mean (MDR E. coli CVCC195; pH=6 for 3 h): 1.4
antibacterial activity after pH treatment (inhibition zone diameter), Mean (MDR E. coli CVCC195; pH=8 for 3 h): 1.383
antibacterial activity after pH treatment (inhibition zone diameter), Mean (MDR E. coli CVCC195; pH=10 for 3 h): 1.387
LPS-LBP binding (relative), Mean (binding of LPS to LBP; 0.625 μM, LPS-coated plate, peptide in DMEM + 10% FBS, 37 °C, 1 h, anti-LBP mAb, OD450): 0.7905
LPS-LBP binding (relative), Mean (binding of LPS to LBP; 1.25 μM): 0.7506
LPS-LBP binding (relative), Mean (binding of LPS to LBP; 2.5 μM): 0.344
LPS-LBP binding (relative), Mean (binding of LPS to LBP; 5 μM): 0.2387
LPS-LBP binding (relative), Mean (binding of LPS to LBP; 10 μM): 0.1958
LPS-LBP binding (relative), Mean (binding of LPS to LBP; 20 μM): 0.1311
LPS-LBP binding (relative), Mean (binding of LPS to LBP; 40 μM): 0.1347
IAP, Mean [2]: 11.4812
lung histology at 1 d (LPS-induced lung injury): partial alleviation of tissue swelling and injury
lung histology at 6 d (LPS-induced lung injury): no pathological changes
